# Test results published in patent US11617748B2, “Meclozine derivatives and diclazuril derivatives for use in the prevention and/or the treatment of disorders associated to the inflammation induced by P. acnes” (priority 2016, dated 2023).
# Experiments:
# Format in all cases: cell-based, human
# Conditions in all cases: 25 μM, 24 h pre-treatment
# PI3K = test: Western blot of p-PI3K/PI3K in P. acnes-stimulated HaCaT cells
# Experimental: (§1) Western Blot analysis. Whole cell protein extracts (25 μg) were separated by electrophoresis (LDS-PAGE) under denaturing conditions with NuPAGE Novex 4-12% Bis-Tris gel (1 mm, 12 wells, Invitrogen, UK) and proteins were transferred onto nitrocellulose membranes and saturated in 20 ml of saturation buffer consisting of TBS 1× (Tris Buffered Saline) containing 200 mM Tris, 1.4 M NaCl (pH 7.6), 5% no fat milk, 0.1% Tween 20 for 1 h. […] After washing to remove unbound antibodies, bound primary antibodies were detected by incubation for 1 h using secondary antibody against rabbit- and mouse IgG (Santa Cruz Biotechnology, SC-2357, 1:5000 and SC-2005, 1:5000, respectively). Unbound material was removed by washing and peroxidase activity was detected in a chemiluminescence assay (WesternBright ECL, Advansta, Menlo Park, USA). […]
# mTOR = test: Western blot of p-mTOR/mTOR in P. acnes-stimulated HaCaT cells
# Experimental: as §1
# PPARβ = test: Western blot of PPARβ expression in P. acnes-stimulated HaCaT cells
# Experimental: as §1
# PPARγ = test: Western blot of PPARγ expression in P. acnes-stimulated HaCaT cells
# Experimental: as §1
SMILES,phosphorylation of PI3K induced by P. acnes (PI3K),phosphorylation of mTOR induced by P. acnes (mTOR),expression of PPARβ (PPARβ),expression of PPARγ (PPARγ)
"Cc1cccc(CN2CCN(C(c3ccccc3)c3ccc(Cl)cc3)CC2)c1 (stereo not shown) [meclozine, Meclozine]",prevented the phosphorylation,did not cause any changed,strongly decrease,–
"N#CC(c1ccc(Cl)cc1)c1c(Cl)cc(-n2ncc(=O)[nH]c2=O)cc1Cl (stereo not shown) [diclazuril, Diclazuril]",prevented the phosphorylation,did not cause any changed,no change,no change
